Results from the NIST ThermoML archive (doi:10.1021/je7004374).

Legend:
[1] = refractive index (Na D-line) (dimensionless); conditions: 298.15 K; 101.33 kPa; Liquid; Standard Abbe refractometry
[2] = Liquid; for speed of sound: Sing-around technique in a fixed-path interferometer

OCCCO [propan-1,3-diol]
Conditions | refractive index
[1] | 1.438

[2]
Conditions | mass density [kg/m3] | speed of sound [m/s]
283.16 K, 101.33 kPa | 1059.09 | –
288.15 K, 101.33 kPa | 1056 | –
292.88 K, 30390 kPa | – | 1721.7
292.89 K, 15200 kPa | – | 1681.2
292.89 K, 45590 kPa | – | 1760.3
292.89 K, 60790 kPa | – | 1797
292.89 K, 75990 kPa | – | 1832.2
292.89 K, 91180 kPa | – | 1865.9
292.89 K, 101320 kPa | – | 1887.8
292.91 K, 100 kPa | – | 1636.5
293.15 K, 100 kPa | 1052.91 | –
293.15 K, 101.33 kPa | – | 1636
293.15 K, 10000 kPa | 1057 | –
293.15 K, 20000 kPa | 1060.96 | –
293.15 K, 30000 kPa | 1064.8 | –
293.15 K, 40000 kPa | 1068.51 | –
293.15 K, 50000 kPa | 1072.11 | –
293.15 K, 60000 kPa | 1075.61 | –
293.15 K, 70000 kPa | 1079.02 | –
293.15 K, 80000 kPa | 1082.34 | –
293.15 K, 90000 kPa | 1085.57 | –
293.15 K, 100000 kPa | 1088.73 | –
293.16 K, 101.33 kPa | 1052.89 | –
298.15 K, 100 kPa | 1049.81 | –
298.15 K, 101.33 kPa | 1049.78 | 1624.5
298.15 K, 10000 kPa | 1053.95 | –
298.15 K, 20000 kPa | 1057.97 | –
298.15 K, 30000 kPa | 1061.86 | –
298.15 K, 40000 kPa | 1065.62 | –
298.15 K, 50000 kPa | 1069.27 | –
298.15 K, 60000 kPa | 1072.82 | –
298.15 K, 70000 kPa | 1076.26 | –
298.15 K, 80000 kPa | 1079.62 | –
298.15 K, 90000 kPa | 1082.89 | –
298.15 K, 100000 kPa | 1086.09 | –
298.16 K, 75990 kPa | – | 1821.4
298.16 K, 91180 kPa | – | 1855.4
298.16 K, 101320 kPa | – | 1877.2
298.17 K, 100 kPa | – | 1624.5
298.17 K, 15200 kPa | – | 1668.7
298.17 K, 30390 kPa | – | 1709.9
298.17 K, 45590 kPa | – | 1748.8
298.17 K, 60790 kPa | – | 1786
303.14 K, 101320 kPa | – | 1868
303.15 K, 100 kPa | 1046.7 | 1613.2
303.15 K, 101.33 kPa | – | 1613.2
303.15 K, 10000 kPa | 1050.89 | –
303.15 K, 20000 kPa | 1054.96 | –
303.15 K, 30000 kPa | 1058.9 | –
303.15 K, 40000 kPa | 1062.72 | –
303.15 K, 45590 kPa | – | 1738.6
303.15 K, 50000 kPa | 1066.41 | –
303.15 K, 60000 kPa | 1070 | –
303.15 K, 60790 kPa | – | 1776
303.15 K, 70000 kPa | 1073.49 | –
303.15 K, 75990 kPa | – | 1811.7
303.15 K, 80000 kPa | 1076.89 | –
303.15 K, 90000 kPa | 1080.2 | –
303.15 K, 91180 kPa | – | 1845.8
303.15 K, 100000 kPa | 1083.43 | –
303.16 K, 101.33 kPa | 1046.65 | –
303.16 K, 15200 kPa | – | 1657.6
303.16 K, 30390 kPa | – | 1699
308.13 K, 100 kPa | – | 1601.9
308.15 K, 100 kPa | 1043.56 | –
308.15 K, 101.33 kPa | – | 1601.8
308.15 K, 10000 kPa | 1047.8 | –
308.15 K, 15200 kPa | – | 1646.6
308.15 K, 20000 kPa | 1051.94 | –
308.15 K, 30000 kPa | 1055.93 | –
308.15 K, 30390 kPa | – | 1688.4
308.15 K, 40000 kPa | 1059.79 | –
308.15 K, 45590 kPa | – | 1728.4
308.15 K, 50000 kPa | 1063.54 | –
308.15 K, 60000 kPa | 1067.17 | –
308.15 K, 60790 kPa | – | 1766
308.15 K, 70000 kPa | 1070.71 | –
308.15 K, 75990 kPa | – | 1802
308.15 K, 80000 kPa | 1074.14 | –
308.15 K, 90000 kPa | 1077.49 | –
308.15 K, 91180 kPa | – | 1836.6
308.15 K, 100000 kPa | 1080.76 | –
308.15 K, 101320 kPa | – | 1858.8
308.16 K, 101.33 kPa | 1043.52 | –
313.12 K, 100 kPa | – | 1590.5
313.12 K, 91180 kPa | – | 1827.4
313.12 K, 101320 kPa | – | 1849.7
313.13 K, 30390 kPa | – | 1678
313.13 K, 45590 kPa | – | 1718.2
313.13 K, 60790 kPa | – | 1756.4
313.13 K, 75990 kPa | – | 1792.6
313.14 K, 15200 kPa | – | 1635.8
313.15 K, 100 kPa | 1040.39 | –
313.15 K, 101.33 kPa | 1040.36 | 1590.5
313.15 K, 10000 kPa | 1044.7 | –
313.15 K, 20000 kPa | 1048.89 | –
313.15 K, 30000 kPa | 1052.94 | –
313.15 K, 40000 kPa | 1056.85 | –
313.15 K, 50000 kPa | 1060.65 | –
313.15 K, 60000 kPa | 1064.33 | –
313.15 K, 70000 kPa | 1067.9 | –
313.15 K, 80000 kPa | 1071.38 | –
313.15 K, 90000 kPa | 1074.77 | –
313.15 K, 100000 kPa | 1078.07 | –
318.15 K, 100 kPa | 1037.21 | –
318.15 K, 101.33 kPa | 1037.19 | 1579.2
318.15 K, 10000 kPa | 1041.57 | –
318.15 K, 20000 kPa | 1045.83 | –
318.15 K, 30000 kPa | 1049.93 | –
318.15 K, 40000 kPa | 1053.9 | –
318.15 K, 50000 kPa | 1057.74 | –
318.15 K, 60000 kPa | 1061.47 | –
318.15 K, 70000 kPa | 1065.09 | –
318.15 K, 80000 kPa | 1068.61 | –
318.15 K, 90000 kPa | 1072.03 | –
318.15 K, 100000 kPa | 1075.37 | –
318.3 K, 100 kPa | – | 1578.9
318.31 K, 30390 kPa | – | 1667.3
318.31 K, 45590 kPa | – | 1708
318.31 K, 60790 kPa | – | 1746.3
318.31 K, 75990 kPa | – | 1783.1
318.31 K, 91180 kPa | – | 1818
318.31 K, 101320 kPa | – | 1840.6
318.32 K, 15200 kPa | – | 1624.6
323.15 K, 101.33 kPa | 1034 | –
328.16 K, 101.33 kPa | 1030.79 | –
333.15 K, 101.33 kPa | 1027.56 | –
338.15 K, 101.33 kPa | 1024.3 | –
343.15 K, 101.33 kPa | 1021.01 | –
348.15 K, 101.33 kPa | 1017.69 | –
353.15 K, 101.33 kPa | 1014.34 | –
358.15 K, 101.33 kPa | 1010.96 | –
363.15 K, 101.33 kPa | 1007.54 | –
